#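 96-well plates; 48 h exposure; 5 concentrations. Endpoints by linear interpolation between flanking doses. Not reached: highest tested concentration assigned. GI50 is the concentration that inhibits growth by half.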 Calls of active or inactive are those of the source. Rule as the data show it: active = GI50 up to about 1.1 µM and inactive = higher.
# Legend:
# Assay in all cases: NCI anticancer screen, dose series, 48 h
# 786-0 = system: 786-0
# RXF 393 = system: RXF 393
# T47D = system: T47D
# RPMI-8226 = system: RPMI-8226
# NCI-H226 = system: NCI-H226
# HL-60 = system: HL-60
# BT-549 = system: BT-549
# IGROV-1 = system: IGROV-1
# MDA-MB-231 = system: MDA-MB-231
# HCT-15 = system: HCT-15
# OVCAR-3 = system: OVCAR-3
# SF-268 = system: SF-268
# SW-620 = system: SW-620
# MOLT-4 = system: MOLT-4
# SR = system: SR
# SN12C = system: SN12C
# MCF7 = system: MCF7
# SF-539 = system: SF-539
# TK-10 = system: TK-10
# SK-MEL-5 = system: SK-MEL-5
# Hs-578T = system: Hs-578T
# NCI-H522 = system: NCI-H522
# EKVX = system: EKVX
# Malme-3M = system: Malme-3M
# A549 = system: A549
# HCT-116 = system: HCT-116
# SK-OV-3 = system: SK-OV-3
# M14 = system: M14
# OVCAR-8 = system: OVCAR-8
# MDA-MB-435 = system: MDA-MB-435
# HOP-62 = system: HOP-62
# U-251 = system: U-251
# NCI/ADR-RES = system: NCI/ADR-RES
# SNB-19 = system: SNB-19
# PC-3 = system: PC-3
# NCI-H460 = system: NCI-H460
# SF-295 = system: SF-295
# KM12 = system: KM12
# CAKI-1 = system: CAKI-1
# SK-MEL-28 = system: SK-MEL-28
# CCRF-CEM = system: CCRF-CEM
# MDA-N = system: MDA-N
# UO-31 = system: UO-31
# COLO 205 = system: COLO 205
# UACC-62 = system: UACC-62
# SNB-75 = system: SNB-75
# UACC-257 = system: UACC-257
# K562 = system: K562
# ACHN = system: ACHN
# HT-29 = system: HT-29
# LOX IMVI = system: LOX IMVI
smiles,measurement,setting,value
NC1=NCC(CN2CCCCC2)O1 (stereo unspecified),GI50,786-0,> 100 µM (inactive)
same,GI50,RXF 393,> 100 µM (inactive)
same,GI50,T47D,> 100 µM (inactive)
same,GI50,RPMI-8226,> 100 µM (inactive)
same,GI50,NCI-H226,> 100 µM (inactive)
same,GI50,HL-60,> 100 µM (inactive)
same,GI50,BT-549,> 100 µM (inactive)
same,GI50,IGROV-1,> 100 µM (inactive)
same,GI50,MDA-MB-231,> 100 µM (inactive)
same,GI50,HCT-15,> 100 µM
same,GI50,OVCAR-3,> 100 µM (inactive)
same,GI50,SF-268,> 100 µM (inactive)
same,GI50,SW-620,> 100 µM (inactive)
same,GI50,MOLT-4,> 100 µM (inactive)
same,GI50,SR,> 100 µM (inactive)
same,GI50,SN12C,> 100 µM (inactive)
same,GI50,MCF7,> 100 µM (inactive)
same,GI50,SF-539,> 100 µM (inactive)
same,GI50,TK-10,> 100 µM (inactive)
same,GI50,SK-MEL-5,> 100 µM (inactive)
same,GI50,Hs-578T,> 100 µM (inactive)
same,GI50,NCI-H522,> 100 µM (inactive)
same,GI50,EKVX,> 100 µM (inactive)
same,GI50,Malme-3M,> 100 µM (inactive)
same,GI50,A549,> 100 µM (inactive)
same,GI50,HCT-116,> 100 µM (inactive)
same,GI50,SK-OV-3,4.12 µM (inactive)
same,GI50,M14,> 100 µM (inactive)
same,GI50,OVCAR-8,> 100 µM (inactive)
same,GI50,MDA-MB-435,> 100 µM (inactive)
same,GI50,HOP-62,> 100 µM (inactive)
same,GI50,U-251,> 100 µM (inactive)
same,GI50,NCI/ADR-RES,> 100 µM (inactive)
same,GI50,SNB-19,> 100 µM (inactive)
same,GI50,PC-3,> 100 µM (inactive)
same,GI50,NCI-H460,> 100 µM (inactive)
same,GI50,SF-295,> 100 µM (inactive)
same,GI50,KM12,> 100 µM (inactive)
same,GI50,CAKI-1,> 100 µM (inactive)
same,GI50,SK-MEL-28,> 100 µM (inactive)
same,GI50,CCRF-CEM,> 100 µM (inactive)
same,GI50,MDA-N,> 100 µM (inactive)
same,GI50,UO-31,> 100 µM (inactive)
same,GI50,COLO 205,> 100 µM (inactive)
same,GI50,UACC-62,> 100 µM (inactive)
same,GI50,SNB-75,> 100 µM (inactive)
same,GI50,UACC-257,> 100 µM (inactive)
same,GI50,K562,> 100 µM (inactive)
same,GI50,ACHN,> 100 µM (inactive)
same,GI50,HT-29,> 100 µM (inactive)
same,GI50,LOX IMVI,> 100 µM (inactive)

# Reference: ChEMBL document CHEMBL1201862, “PubChem BioAssay data set” (2004)
